Key:
c-Myc [1] = test: c-Myc quantification by flow cytometry in HT-29; format: cell-based, human; conditions: HT-29, 10 μM, 24 h, referred to control (DMSO)
Protocol: (§1) We evaluated the effect of the selected compounds on PD-L1 and on c-Myc proteins by flow cytometry after 24 h treatment at 10 μM concentration of compounds. Both, PD-L1 and c-Myc were relatively determined using DMSO treated cells as a negative control and BMS-8 as a positive one.
(§2) For the detection of total PD-L1 and c-Myc, cancer cells were seeded (3 × 10^5 cells/well) in 6-well plates and were incubated with the corresponding compounds for 24 h. Then they were collected, fixed, treated with 0.5% Triton^TM X-100 and stained with Alexa Fluor® 647 Rabbit monoclonal Anti-PD-L1 (ab215251) and FITC Rabbit monoclonal anti-c-Myc (ab223913).
(§3) We also checked results performing ELISA tests. For ELISA tests, lysates were collected, protein quantification was carried out by Bradford test and, then, PD-L1 and c-Myc were quantified using Human PD-L1 ELISA Kit 28-8 (ab214565) and c-Myc (Total) Human ELISA Kit (KHO2041), respectively, according to the manufacturer’s instructions.

c-Myc [2] = test: c-Myc quantification by flow cytometry in A-549; format: cell-based, human; conditions: A-549, 10 μM, 24 h, referred to control (DMSO)
Protocol: as §1, §2, §3

Jurkat T cells = test: Jurkat T cell proliferation and population distribution in co-cultures with HT-29; format: cell-based, human; conditions: co-cultured with HT-29, 10 μM, 24 h
From the text: We also determine Jurkat T cell proliferation in those co-cultures from the corresponding media by flow cytometry. […] All samples provided similar population distribution except by those treated with Compound 16, in which an enhancement of size and complexity is observed.
Data provided in Figure 7 show the density of living Jurkat T cells in the treated co-cultures with HT-29. The graphics include cell distribution population by size and complexity in each case.
In 12-well plates, 10^5 HT-29 cells per well were seeded and incubated for 24 h with cell culture medium supplemented with IFN-γ (10 ng/mL; human, Invitrogen®) then medium was change by one containing 4 × 10^5 Jurkat T cells per well and 10 μM of the corresponding compound or DMSO for the control. After 24 h of incubation, supernatants were collected to determine Jurkat T cell living cells and, on the other hand, HT-29 cells were collected with trypsin. Both types of suspension cells were counted with the Neubauer chamber and trypan blue and also by flow cytometry.

VEGFR-2 [3] = target: T1, VEGFR-2 (Homo sapiens, UniProt P35968); test: VEGFR-2 quantification by flow cytometry in HMEC-1; format: cell-based; parameters: Both membrane and total VEGFR-2 were relatively determined using dimethyl sulfoxide (DMSO) treated cells as a negative control; endogenous in cells; host or cells: HMEC-1 (human microvascular endothelial cells); conditions: 10 µM, 24 h, relative to DMSO control
Protocol: (§4) We performed the study on both a HT-29 cancer cell line and a human microvessel endothelial cell line (HMEC-1). […] The effect of these selected derivatives on VEGFR-2, on HT-29 tumor cell line and on human microvessel endothelial cells (HMEC) was determined by flow cytometry technique. […] For these assays, cells were incubated for 24 h in the presence of the corresponding compounds at 10 µM concentration.

VEGFR-2 [4] = target: T1, VEGFR-2; test: VEGFR-2 quantification by flow cytometry in HT-29; format: cell-based; parameters: Both membrane and total VEGFR-2 were relatively determined using dimethyl sulfoxide (DMSO) treated cells as a negative control; endogenous in cells; host or cells: HT-29 (colon adenocarcinoma) and HMEC-1 (human microvascular endothelial cells); conditions: 24 h
Protocol: as §4

[5] = HT-29, 10 µM, relative to DMSO control

T1 sequence (P35968 20-1356): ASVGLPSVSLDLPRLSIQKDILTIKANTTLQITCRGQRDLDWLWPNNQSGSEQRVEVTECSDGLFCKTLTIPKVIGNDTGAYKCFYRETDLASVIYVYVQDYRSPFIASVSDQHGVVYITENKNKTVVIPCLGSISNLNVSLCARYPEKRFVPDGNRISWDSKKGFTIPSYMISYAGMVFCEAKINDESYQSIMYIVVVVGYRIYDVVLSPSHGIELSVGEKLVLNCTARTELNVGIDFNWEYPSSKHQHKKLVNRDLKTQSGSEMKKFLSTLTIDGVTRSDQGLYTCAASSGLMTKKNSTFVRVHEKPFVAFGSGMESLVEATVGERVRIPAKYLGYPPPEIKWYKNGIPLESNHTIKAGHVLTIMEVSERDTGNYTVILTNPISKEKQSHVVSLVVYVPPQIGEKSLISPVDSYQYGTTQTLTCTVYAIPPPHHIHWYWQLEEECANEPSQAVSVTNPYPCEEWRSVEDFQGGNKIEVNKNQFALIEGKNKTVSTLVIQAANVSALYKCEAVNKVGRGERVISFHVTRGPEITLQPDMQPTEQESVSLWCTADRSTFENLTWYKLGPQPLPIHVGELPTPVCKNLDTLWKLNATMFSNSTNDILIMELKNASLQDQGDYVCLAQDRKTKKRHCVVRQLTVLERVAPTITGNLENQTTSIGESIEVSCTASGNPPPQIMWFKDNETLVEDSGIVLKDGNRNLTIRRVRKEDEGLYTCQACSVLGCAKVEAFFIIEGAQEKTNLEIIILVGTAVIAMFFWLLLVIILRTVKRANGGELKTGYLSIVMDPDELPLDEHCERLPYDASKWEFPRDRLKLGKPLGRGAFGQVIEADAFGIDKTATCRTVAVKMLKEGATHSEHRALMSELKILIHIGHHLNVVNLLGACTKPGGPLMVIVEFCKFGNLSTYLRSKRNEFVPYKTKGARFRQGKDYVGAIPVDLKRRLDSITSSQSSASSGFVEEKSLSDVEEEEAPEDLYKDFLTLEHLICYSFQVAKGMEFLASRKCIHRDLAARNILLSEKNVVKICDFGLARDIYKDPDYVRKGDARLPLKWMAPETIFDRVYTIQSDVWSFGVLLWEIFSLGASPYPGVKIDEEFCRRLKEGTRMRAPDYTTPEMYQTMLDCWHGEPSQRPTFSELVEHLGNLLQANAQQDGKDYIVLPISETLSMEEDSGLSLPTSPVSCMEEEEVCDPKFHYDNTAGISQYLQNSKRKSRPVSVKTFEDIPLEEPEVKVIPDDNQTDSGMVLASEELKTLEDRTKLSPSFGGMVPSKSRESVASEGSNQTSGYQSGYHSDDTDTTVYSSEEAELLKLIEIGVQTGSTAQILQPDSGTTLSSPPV

- melting point: 173 °C
- Membrane VEGFR-2 (%) (VEGFR-2 [3]): 45 ± 8%
- Total VEGFR-2 (%) (VEGFR-2 [3]): 59 ± 5%
- inhibition at 10 µM (VEGFR-2 [4]; 10 µM, statement for HT-29 and HMEC-1, read-out: inhibition of both membrane and total VEGFR-2): > 50%
- Membrane VEGFR-2 (%) (VEGFR-2 [4]; [5]): 39 ± 9%
- Total VEGFR-2 (%) (VEGFR-2 [4]; [5]): 55 ± 10%
SMILES: COc1ccc(/C=C\c2cccc(NC(=O)Nc3ccc(Br)cc3)c2)cc1 [Compound 16]
- c-Myc (%) relative expression (c-Myc [1]): 41 ± 10%
- c-Myc (%) relative expression (c-Myc [2]): 29 ± 5%
- effect on Jurkat T cell proliferation (Jurkat T cells): hardly affect proliferation of T cell
- effect on T cell size and complexity (morphology) (Jurkat T cells): an increase on their size and complexity
